Measurements: patent US20140005230A1 (priority 2011, published 2014)

Key:
[1] = LogP by HPLC on reversed phase columns (EEC directive 79/831 Annex V.A8); format: physicochemical; settings: pH 2.7, 0.1% formic acid in water / acetonitrile gradient
Experimental: Measurement of Iog P values was performed according EEC directive 79/831 Annex V.A8 by HPLC (High Performance Liquid Chromatography) on reversed phase columns with the following method:
Measurement of LC-MS was done at pH 2.7 with 0.1% formic acid in water and with acetonitrile (contains 0.1% formic acid) as eluent with a linear gradient from 10% acetonitrle to 95% acetonitrile.
Calibration was done with not branched alkan2-ones (with 3 to 16 carbon atoms) with known log P-values (measurement of log P values using retention times with linear interpolation between successive alkanones). lambda-maX-values were determined using UV-spectra from 200 nm to 400 nm and the peak values of the chromatographic signals.

Phytophthora infestans = format: in vivo; settings: tomatoes, preventive spray, 10 ppm of active ingredient, evaluated 3 days after inoculation
Plasmopara viticola = assay: Plasmopara test (grapevines) / preventive; format: in vivo; settings: preventive spray, 100 ppm of active ingredient, evaluated 6 days after inoculation
Experimental: Plasmopara Test (Grapevines)/Preventive
To produce a suitable preparation of active compound, 1 part by weight of active compound is mixed with the stated amounts of solvent and emulsifier, and the concentrate is diluted with water to the desired concentration.
To test for preventive activity, young plants are sprayed with the preparation of active compound at the stated rate of application. After the spray coating has dried on, the plants are inoculated with an aqueous spore suspension of Plasmopara viticola and then remain for 1 day in an incubation cabinet at approximately 20° C. and a relative atmospheric humidity of 100%. The plant is subsequently placed for 4 days in a greenhouse at approximately 21° C. and a relative atmospheric humidity of approximately 90%. The plants are then misted and placed for 1 day in an incubation cabinet.
The test is evaluated 6 days after the inoculation. 0% means an efficacy which corresponds to that of the untreated control, while an efficacy of 100% means that no disease is observed.

Pythium ultimum = assay: Pythium test (cotton) / seed treatment; format: in vivo; settings: 50 g/dt seed of active ingredient, greenhouse 7 days, emerged seedlings
Experimental: Pythium Test (cotton)/Seed Treatment
The test is performed under greenhouse conditions.
Cotton seeds, treated with the active compound or compound combinations, solved in N-methyl-2-pyrrolidon and diluted with water to the desired dosages, were sown in 6*6 cm pots containing 4 cm of a 1:1 mix of steamed field soil and sand.
Perlite was incubated with mycelium fragments of Pythium ultimum. 1 ml of infected perlite was scattered between the treated cotton seeds. Seeds were then covered by light expanded clay aggregate. Pots were incubated in the greenhouse 7 days at 20° C. and 80% relative humidity.
Assessment consisted of counting of emerged seedlings. 0% means an efficacy which corresponds to that of the control, while an efficacy of 100% means that all seedlings have emerged.

Structure (SMILES): CC(C)=CC(=O)Nc1nc(CON=C(c2ccccc2)n2nnnc2C)cs1 [Example 12]
- LogP [1]: 3.15
- Eff. % (Phytophthora infestans): 80%

Structure (SMILES): CC(=CC(=O)Nc1nc(CON=C(c2ccccc2)n2nnnc2C)cs1)C1CC1 [Example 7]
- LogP [1]: 3.46

Structure (SMILES): Cc1nnnn1C(=NOCc1csc(NC(=O)C=CC2CCCCC2)n1)c1ccccc1 [Example 16]
- LogP [1]: 2.53
- Eff. % (Phytophthora infestans): 90%

Structure (SMILES): Cn1nnnc1C(=NOCc1csc(NC(=O)C=CC2CC2)n1)c1ccccc1 [Example 24]
- LogP [1]: 3.04
- Eff. % (Phytophthora infestans): 95%
- Eff. % (Plasmopara viticola): 90%

Structure (SMILES): CC(=CC(=O)Nc1nc(CON=C(c2ccccc2)c2nnnn2C)cs1)C1CCCCC1 [Example 20]
- LogP [1]: 4.66
- Eff. % (Phytophthora infestans): 80%

Structure (SMILES): CC(=CC(=O)Nc1cccc(CON=C(c2ccccc2)n2nnnc2C)n1)C1CC1 (mixture of isomers) [Example 31]
- LogP [1]: 3.59
- Eff. % (Phytophthora infestans): 93%

Structure (SMILES): Cn1nnnc1C(=NOCc1cccc(NC(=O)C=CC2CCCCC2)n1)c1ccccc1 [Example 6]
- LogP [1]: 4.36
- Eff. % (Phytophthora infestans): 95%
- Eff. % (Plasmopara viticola): 93%

Structure (SMILES): CC(=CC(=O)Nc1cccc(CON=C(c2ccccc2)c2nnnn2C)n1)C1CCCCC1 [Example 5]
- LogP [1]: 4.82
- Eff. % (Phytophthora infestans): 90%
- Eff. % (Plasmopara viticola): 91%

Structure (SMILES): CC(=CC1CCCC1)C(=O)Nc1nc(CON=C(c2ccccc2)n2nnnc2C)cs1 [Example 10]
- LogP [1]: 4.16
- Eff. % (Phytophthora infestans): 80%

Structure (SMILES): CC(C)=CC(=O)Nc1nc(CON=C(c2ccccc2)c2nnnn2C)cs1 [Example 28]
- LogP [1]: 3.08
- Eff. % (Phytophthora infestans): 90%

Structure (SMILES): Cc1nnnn1C(=NOCc1csc(NC(=O)C=C(C2CC2)C2CC2)n1)c1ccccc1 [Example 15]
- LogP [1]: 3.83

Structure (SMILES): Cc1nnnn1C(=NOCc1csc(NC(=O)C=C(c2ccccc2)C2CC2)n1)c1ccccc1 [Example 17]
- LogP [1]: 2.38

Structure (SMILES): CC(=CC1CC1)C(=O)Nc1nc(CON=C(c2ccccc2)n2nnnc2C)cs1 [Example 11]
- LogP [1]: 3.52
- Eff. % (Phytophthora infestans): 95%

Structure (SMILES): CC(=CC(=O)Nc1cccc(CON=C(c2ccccc2)c2nnnn2C)n1)C1CC1 [Example 1, 3-cyclopropyl-N-{6-[({[(1-methyl-1H-tetrazol-5-yl)(phenyl)methylene]amino}oxy)methyl]pyridin-2-yl}but-2-enamide]
- chromatographic logP ([1]; reversed phase HPLC column): 3.48
- Eff. % (Phytophthora infestans): 95%
- Eff. % (Plasmopara viticola): 97%
- Eff. % (Pythium ultimum): 100%

Structure (SMILES): CC(=CC1CCCC1)C(=O)Nc1nc(CON=C(c2ccccc2)c2nnnn2C)cs1 [Example 26]
- LogP [1]: 4.09
- Eff. % (Phytophthora infestans): 95%
- Eff. % (Plasmopara viticola): 90%

Structure (SMILES): CC(=CC(=O)Nc1cccc(CON=C(c2ccccc2)c2nnnn2C)n1)C1CC1 [Example 3]
- LogP [1]: 3.46
- Eff. % (Phytophthora infestans): 95%

Structure (SMILES): CC(=CC(=O)Nc1cccc(CON=C(c2ccccc2)c2nnnn2C)n1)C1CC1 [Example 2]
- LogP [1]: 3.29
- Eff. % (Phytophthora infestans): 100%
- Eff. % (Plasmopara viticola): 84%

Structure (SMILES): Cc1nnnn1C(=NOCc1csc(NC(=O)C=CC2CC2)n1)c1ccccc1 [Example 13]
- LogP [1]: 3.09

Structure (SMILES): Cn1nnnc1C(=NOCc1csc(NC(=O)C=C(C2CC2)C2CC2)n1)c1ccccc1 [Example 23]
- LogP [1]: 3.76
- Eff. % (Phytophthora infestans): 85%

Structure (SMILES): CC(=CC1CC1)C(=O)Nc1nc(CON=C(c2ccccc2)c2nnnn2C)cs1 [Example 27]
- LogP [1]: 3.44
- Eff. % (Phytophthora infestans): 95%

Structure (SMILES): Cn1nnnc1C(=NOCc1csc(NC(=O)C=C(c2ccccc2)C2CC2)n1)c1ccccc1 [Example 30]
- LogP [1]: 2.36
- Eff. % (Phytophthora infestans): 85%

Structure (SMILES): Cc1nnnn1C(=NOCc1csc(NC(=O)C=C(c2ccccc2)C2CC2)n1)c1ccccc1 [Example 9]
- LogP [1]: 4.26
- Eff. % (Phytophthora infestans): 85%

Structure (SMILES): Cn1nnnc1C(=NOCc1csc(NC(=O)C=CC2CCCCC2)n1)c1ccccc1 [Example 29]
- LogP [1]: 2.5
- Eff. % (Phytophthora infestans): 95%

Structure (SMILES): CC(=CC(=O)Nc1nc(CON=C(c2ccccc2)c2nnnn2C)cs1)C1CCCCC1 [Example 21]
- LogP [1]: 4.44

Structure (SMILES): Cn1nnnc1C(=NOCc1csc(NC(=O)C=C(c2ccccc2)C2CC2)n1)c1ccccc1 [Example 22]
- LogP [1]: 4.21
- Eff. % (Phytophthora infestans): 80%

Structure (SMILES): Cc1nnnn1C(=NOCc1cccc(NC(=O)C=C(c2ccccc2)C2CC2)n1)c1ccccc1 [Example 33]
- LogP [1]: 4.41
- Eff. % (Phytophthora infestans): 95%

Structure (SMILES): Cc1nnnn1C(=NOCc1cccc(NC(=O)C=CC2CCCCC2)n1)c1ccccc1 (mixture of isomers) [Example 32]
- LogP [1]: 4.46
- Eff. % (Phytophthora infestans): 95%

Structure (SMILES): CC(=CC(=O)Nc1nc(CON=C(c2ccccc2)c2nnnn2C)cs1)C1CC1 [Example 18]
- LogP [1]: 3.41
